From patent US9199946B2, “Pyrimidinone carboxamide inhibitors of endothelial lipase” (BRISTOL-MYERS SQUIBB COMPANY, priority 2012, dated 2015) come the findings set out here.

This assay concerns the target T1, Endothelial lipase (EL) (Homo sapiens, UniProt Q9Y5X9).
T1 construct: HT-1080 cells, which were transformed by RAGE technology (Athersys) to overexpress endogenous EL; endogenous in cells; conditioned medium used as the enzyme source
T1 sequence (Q9Y5X9 21-500): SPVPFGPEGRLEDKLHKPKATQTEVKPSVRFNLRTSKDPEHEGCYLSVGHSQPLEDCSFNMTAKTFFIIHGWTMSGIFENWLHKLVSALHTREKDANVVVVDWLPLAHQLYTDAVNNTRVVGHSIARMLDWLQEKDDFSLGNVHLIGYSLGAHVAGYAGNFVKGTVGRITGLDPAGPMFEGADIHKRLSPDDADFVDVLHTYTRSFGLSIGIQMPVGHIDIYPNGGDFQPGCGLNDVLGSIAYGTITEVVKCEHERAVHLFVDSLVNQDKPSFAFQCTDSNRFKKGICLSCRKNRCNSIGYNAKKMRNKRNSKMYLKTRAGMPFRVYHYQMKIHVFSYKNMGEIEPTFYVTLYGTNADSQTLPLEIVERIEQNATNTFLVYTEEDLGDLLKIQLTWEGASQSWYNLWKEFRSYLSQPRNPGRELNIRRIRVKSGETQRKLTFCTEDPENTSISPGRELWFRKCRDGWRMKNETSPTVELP
As to the kind of experiment: Endothelial lipase (EL) enzymatic assay with fluorescent substrate A10070 in DMPG vesicles. In kind it is biochemical. An outline of the steps: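 EL activity was followed as a fluorescence rate (488/530 nm, reads every 20 s for 10 min, linear slope) on A10070 doped at 0.05 mole fraction into sonicated DMPG vesicles. Compound was first incubated 20 min at 37 °C, pH 8.0 HEPES/CaCl2 buffer, with conditioned media from EL-overexpressing HT-1080 cells.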

The mark [1] stands for this setting: range observed in the EL assay, read-out: EL IC50 values.
Setting [2] is: conditioned media from HT-1080 cells overexpressing endogenous EL, 20 min preincubation at 37° C., read-out: EL IC50.

The structures appear in SMILES notation. Like-named read-outs stand apart in the source and are kept apart here. Some results are limits rather than exact numbers.

For the compound `CC(CO)Nc1c(C(=O)N[C@H]2CC[C@@H](c3ccccc3)CC2)[nH]c(=O)[nH]c1=O` (stereo partly drawn) [Example 235, 5-(1-hydroxypropan-2-ylamino)-2,6-dioxo-N-(cis-4-phenylcyclohexyl)-1,2,3,6-tetrahydropyrimidine-4-carboxamide], under setting [1], the IC50 is ≤ 10 µM. Still for that read-out and setting: next, `COc1ccc(-c2ccc([C@@H]3CC[C@H](NC(=O)c4[nH]c(=O)[nH]c(=O)c4N)C3)cc2)cc1OC` [Example 161, 5-amino-N-((1S,3R)-3-(3′,4′-dimethoxybiphenyl-4-yl)cyclopentyl)-2,6-dioxo-1,2,3,6-tetrahydropyrimidine-4-carboxamide]: ≤ 10 µM; `CC(C)Cn1c(=O)[nH]c(C(=O)N[C@H]2CC[C@@H](c3ccccc3)CC2)c(O)c1=O` [Example 253, 5-hydroxy-1-isobutyl-2,6-dioxo-N-((1s,4s)-4-phenylcyclohexyl)-1,2,3,6-tetrahydropyrimidine-4-carboxamide]: ≤ 10 µM; `O=C(N[C@H]1CC[C@@H](c2ccccc2)CC1)c1[nH]c(=O)[nH]c(=O)c1NCCN1CCCCC1` [Example 237, 2,6-dioxo-N-((1s,4s)-4-phenylcyclohexyl)-5-(2-(piperidin-1-yl)ethylamino)-1,2,3,6-tetrahydropyrimidine-4-carboxamide]: ≤ 10 µM. The same measure, in the same setting: next, `COC(=O)C[C@H]1C[C@H](NC(=O)c2[nH]c(=O)[nH]c(=O)c2N)c2ccccc2[C@@H]1c1ccccc1` [Example 21, methyl 2-((1S,2R,4S)-4-(5-amino-2,6-dioxo-1,2,3,6-tetrahydropyrimidine-4-carboxamido)-1-phenyl-1,2,3,4-tetrahydronaphthalen-2-yl)acetate]: ≤ 10 µM; `Nc1c(C(=O)N[C@@H]2CCCc3c(OCC4CCCC4)cccc32)[nH]c(=O)[nH]c1=O` [Example 113, (R)-5-amino-N-(5-(cyclopentylmethoxy)-1,2,3,4-tetrahydronaphthalen-1-yl)-2,6-dioxo-1,2,3,6-tetrahydropyrimidine-4-carboxamide]: ≤ 10 µM.

Turning to `Nc1c(C(=O)NC2CCCCC2C2CCCCC2)[nH]c(=O)[nH]c1=O` (stereo not shown) [Example 59, 5-amino-N-(bi(cyclohexan)-2-yl)-2,6-dioxo-1,2,3,6-tetrahydropyrimidine-4-carboxamide], the IC50 under setting [1] is ≤ 10 µM.

In the case of `Nc1c(C(=O)N[C@@H]2CCC[C@H]2OCc2ccccc2)[nH]c(=O)[nH]c1=O` [Example 63, 5-amino-N-((1R,2R)-2-(benzyloxy)cyclopentyl)-2,6-dioxo-1,2,3,6-tetrahydropyrimidine-4-carboxamide], under setting [1], the IC50 was ≤ 10 µM. For `O=C(N[C@H]1CCCc2c(OCC(F)(F)F)cccc21)c1[nH]c(=O)[nH]c(=O)c1O` [Example 246, (S)-5-hydroxy-2,6-dioxo-N-(5-(2,2,2-trifluoroethoxy)-1,2,3,4-tetrahydronaphthalen-1-yl)-1,2,3,6-tetrahydropyrimidine-4-carboxamide], the half-inhibitory concentration (IC50) under setting [1] is ≤ 10 µM. `Nc1c(C(=O)NC2CCC(c3cccc(OCc4ccccc4)c3)C2)[nH]c(=O)[nH]c1=O` (single isomer, unassigned) [Example 155, 5-amino-N-(3-(3-(benzyloxy)phenyl)cyclopentyl)-2,6-dioxo-1,2,3,6-tetrahydropyrimidine-4 carboxamide]: the IC50 under setting [1] is ≤ 10 µM.

Take `NC(=O)c1ccccc1-c1ccc([C@@H]2CC[C@H](NC(=O)c3[nH]c(=O)[nH]c(=O)c3N)C2)cc1` [Example 180, 5-amino-N-((1S,3R)-3-(2′-carbamoyl-[1,1′-biphenyl]-4-yl)cyclopentyl)-2,6-dioxo-1,2,3,6-tetrahydropyrimidine-4-carboxamide]: the IC50 is, setting by setting: under setting [2], 0.141 µM; under setting [1], ≤ 10 µM. On to `COc1ccc([C@@H]2CC[C@@H](NC(=O)c3[nH]c(=O)[nH]c(=O)c3N)C2)cn1` [Example 80, 5-amino-N-((1R,3R)-3-(6-methoxypyridin-3-yl)cyclopentyl)-2,6-dioxo-1,2,3,6-tetrahydropyrimidine-4-carboxamide], for which, under setting [1], the IC50 was ≤ 10 µM. For `O=C(NC1CCCC(c2cnn(Cc3ccccc3)c2)C1)c1[nH]c(=O)[nH]c(=O)c1O` (racemic) [Example 289, N-(3-(1-benzyl-1H-pyrazol-4-yl)cyclohexyl)-5-hydroxy-2,6-dioxo-1,2,3,6-tetrahydropyrimidine-4-carboxamide], the IC50 under setting [2] came out at 0.01 µM and the IC50 under setting [1] was ≤ 10 µM.

Take `Cc1ccc(S(=O)(=O)Nc2ccc(C3CCCC(NC(=O)c4[nH]c(=O)[nH]c(=O)c4N)C3)cc2)cc1` (stereo not shown) [Example 128, 5-amino-N-(3-(4-(4-methylphenylsulfonamido)phenyl)cyclohexyl)-2,6-dioxo-1,2,3,6-tetrahydropyrimidine-4-carboxamide]: the IC50 under setting [2] amounted to 0.013 µM and the half-inhibitory concentration (IC50) under setting [1] is ≤ 10 µM. On to `Nc1c(C(=O)NC2CCC(n3cc(-c4ccc(Br)cc4)cn3)C2)[nH]c(=O)[nH]c1=O` (stereo not shown) [Example 140, 5-amino-N-(3-(4-(4-bromophenyl)-1H-pyrazol-1-yl)cyclopentyl)-2,6-dioxo-1,2,3,6-tetrahydropyrimidine-4-carboxamide], for which, under setting [1], the IC50 is ≤ 10 µM. `COc1ccc2c(c1)OC(C)CC2NC(=O)c1[nH]c(=O)[nH]c(=O)c1N` (stereo not shown) [Example 17, 5-amino-N-(7-methoxy-2-methylchroman-4-yl)-2,6-dioxo-1,2,3,6-tetrahydropyrimidine-4-carboxamide]: the IC50 under setting [1] is ≤ 10 µM. The same measure, in the same setting: the result for `Nc1c(C(=O)N[C@@H]2CCc3c(Cl)cc(Cl)cc32)[nH]c(=O)[nH]c1=O` [Example 5, (R)-5-amino-N-(4,6-dichloro-2,3-dihydro-1H-inden-1-yl)-2,6-dioxo-1,2,3,6-tetrahydropyrimidine-4-carboxamide] reads ≤ 10 µM. On to `COc1ccc2c(c1)C(NC(=O)c1[nH]c(=O)[nH]c(=O)c1N)CC2` (single isomer, unassigned) [Example 72, 5-amino-N-(6-methoxy-2,3-dihydro-1H-inden-1-yl)-2,6-dioxo-1,2,3,6-tetrahydropyrimidine-4-carboxamide], for which the IC50 under setting [2] is 22.2 µM. For the compound `CC(=O)Nc1ccccc1-c1ccc([C@@H]2CC[C@H](NC(=O)c3[nH]c(=O)[nH]c(=O)c3N)C2)cc1` [Example 162, N-((1S,3R)-3-(2′-acetamidobiphenyl-4-yl)cyclopentyl)-5-amino-2,6-dioxo-1,2,3,6-tetrahydropyrimidine-4-carboxamide], the IC50 under setting [1] was ≤ 10 µM. On the same count and under the same terms, the result for `Nc1c(C(=O)N[C@H]2CC[C@@H](NC(=O)Nc3ccccc3)CC2)[nH]c(=O)[nH]c1=O` [Example 118, 5-amino-2,6-dioxo-N-(cis-4-(3-phenylureido)cyclohexyl)-1,2,3,6-tetrahydropyrimidine-4-carboxamide] reads ≤ 10 µM. Take `Nc1c(C(=O)NC2CCN(c3nc(Br)nn3Cc3ccccc3)C2)[nH]c(=O)[nH]c1=O` (stereo not shown) [Example 187, 5-amino-N-(1-(1-benzyl-3-bromo-1H 1,2,4-triazol-5-yl)pyrrolidin-3-yl)-2,6 dioxo-1,2,3,6-tetrahydropyrimidine-4 carboxamide]: the IC50 reads like this: under setting [2], 0.946 µM; under setting [1], ≤ 10 µM. As for `CC(C)(C)OC(=O)N1CCC(NC(=O)c2[nH]c(=O)[nH]c(=O)c2N)c2ccccc21` (stereo not shown) [Example 16, tert-butyl 4-(5-amino-2,6-dioxo-1,2,3,6-tetrahydropyrimidine-4-carboxamido)-3,4-dihydroquinoline-1(2H)-carboxylate], the IC50 under setting [1] was ≤ 10 µM. Still for that read-out and setting: the result for `Nc1c(C(=O)N[C@@H]2CCCc3ccc(F)cc32)[nH]c(=O)[nH]c1=O` [Example 40, (R)-5-amino-N-(7-fluoro-1,2,3,4-tetrahydronaphthalen-1-yl)-2,6-dioxo-1,2,3,6-tetrahydropyrimidine-4-carboxamide] reads ≤ 10 µM; that for `COc1ccc2c(c1OC)CCC(NC(=O)c1[nH]c(=O)[nH]c(=O)c1N)C2` (stereo not shown) [Example 108, 5-amino-N-(5,6-dimethoxy-1,2,3,4-tetrahydronaphthalen-2-yl)-2,6-dioxo-1,2,3,6-tetrahydropyrimidine-4-carboxamide], ≤ 10 µM; that for `Nc1c(C(=O)N[C@H]2CCc3ccc(OCc4ccccc4)cc32)[nH]c(=O)[nH]c1=O` [Example 90, (S)-5-amino-N-(6-(benzyloxy)-2,3-dihydro-1H-inden-1-yl)-2,6-dioxo-1,2,3,6-tetrahydropyrimidine-4-carboxamide], ≤ 10 µM. On the same count and under the same terms, next, `Nc1c(C(=O)N[C@H]2C[C@@H](c3ccccc3)c3ccccc32)[nH]c(=O)[nH]c1=O` [Example 28, 5-amino-2,6-dioxo-N-((1S,3S)-3-phenyl-2,3-dihydro-1H-inden-1-yl)-1,2,3,6-tetrahydropyrimidine-4-carboxamide]: ≤ 10 µM. Still for that read-out and setting: the result for `COCCOc1ccc(C(=O)N[C@H]2CC[C@@H](NC(=O)c3[nH]c(=O)[nH]c(=O)c3N)CC2)cc1` [Example 120, 5-amino-N-(cis-4-(4-(2-methoxyethoxy)benzamido)cyclohexyl)-2,6-dioxo-1,2,3,6-tetrahydropyrimidine-4-carboxamide] reads ≤ 10 µM.

As usually defined, the IC50 is the midpoint of a concentration-inhibition curve.
